Data taken from the supplement of paper PMC7017272.
± gives the standard deviation of the averaged measurements.

Assays:
Conditions in all cases: treatment time: 3 days
UT-SCC-44 [1] = experiment: drug sensitivity score (DSS); higher = more sensitive; extreme values may be limits of the assay
Procedure, shortened: (§1)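 HPV-negative HNSCC cell lines were plated at 500 cells/well in 384-well plates, either on plastic, on wells coated with Matrigel or Myogel (500 µg/mL), or embedded in Matrigel or Myogel plus rat collagen I. Each compound was tested at five 10-fold concentrations over 3 days. Viability was measured by CellTiter-Glo 2.0 luminescence, and IC50, maximal inhibition and drug sensitivity score came from percent-inhibition dose–response curves fitted in the FIMM pipeline after normalisation to vehicle (0.1% DMSO) and cell-killing control wells.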

UT-SCC-14 = experiment: as above
Procedure, shortened: as §1

UT-SCC-24B = experiment: as above
Procedure, shortened: as §1

UT-SCC-73 [2] = experiment: as above
Procedure, shortened: as §1

UT-SCC-106A [3] = experiment: as above
Procedure, shortened: as §1

UT-SCC-28 = experiment: as above
Procedure, shortened: as §1

UT-SCC-81 = experiment: as above
Procedure, shortened: as §1

UT-SCC-42B [4] = experiment: as above
Procedure, shortened: as §1

UT-SCC-42A = experiment: as above
Procedure, shortened: as §1

UT-SCC-8 = experiment: as above
Procedure, shortened: as §1

UT-SCC-40 [5] = experiment: as above
Procedure, shortened: as §1

UT-SCC-24A [6] = experiment: maximal % inhibition of viability relative to DMSO; higher = stronger effect
Description: (§2)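 HNSCC cell lines (500 cells/well, 384-well) were cultured on plastic, on top of (2D) or embedded (3D) in Matrigel or human leiomyoma matrix Myogel (500 ug/mL; Myogel 3D mixed with rat collagen I). Cells were treated for 3 days with 5 ten-fold concentrations of each drug, and viability was read by CellTiter-Glo. Viability was normalised to DMSO (0% inhibition) and 100 uM benzethonium chloride (100% inhibition) controls and fitted with the FIMM DSRT pipeline to give IC50 (nM), maximal % inhibition and the drug sensitivity score (DSS). Suffixes _1/_2/_3 on drug names are replicates.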

UT-SCC-24A [7] = experiment: relative IC50 (midpoint of the fitted curve; maximal inhibition may be below 50%); higher = less potent
Description: as §2

UT-SCC-24A [8] = experiment: drug sensitivity score (DSS); higher = more sensitive
Description: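 HNSCC cell lines (500 cells/well, 384-well) were cultured on plastic, on top of (2D) or embedded (3D) in Matrigel or human leiomyoma matrix Myogel (500 ug/mL; Myogel 3D mixed with rat collagen I). Cells were treated for 3 days with 5 ten-fold concentrations of each drug, and viability was read by CellTiter-Glo. Suffixes _1/_2/_3 on drug names are replicates.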

UT-SCC-44 [9] = experiment: relative IC50 (midpoint of the fitted curve; maximal inhibition may be below 50%); higher = less potent
Procedure, shortened: as §1

UT-SCC-73 [10] = experiment: as above
Procedure, shortened: as §1

UT-SCC-106A [11] = experiment: as above
Procedure, shortened: as §1

UT-SCC-42B [12] = experiment: as above
Procedure, shortened: as §1

UT-SCC-40 [13] = experiment: as above
Procedure, shortened: as §1

[14] = culture condition: embedded in Matrigel
[15] = culture condition: embedded in Myogel + collagen I
[16] = culture condition: on top of Matrigel
[17] = culture condition: on top of Myogel
[18] = culture condition: plastic 2D (no matrix)

What does the source list for `CC(=O)Nc1cccc(-n2c(=O)n(C3CC3)c(=O)c3c(Nc4ccc(I)cc4F)n(C)c(=O)c(C)c32)c1` [Trametinib]?
drug sensitivity score (UT-SCC-44 [1]; [14]): 18.2 ± 0.7 DSS; drug sensitivity score (UT-SCC-44 [1]; [15]): 4.27 ± 1.7 DSS; drug sensitivity score (UT-SCC-44 [1]; [16]): 12.5 ± 1.8 DSS; drug sensitivity score (UT-SCC-44 [1]; [17]): 5.07 ± 3.6 DSS; drug sensitivity score (UT-SCC-44 [1]; [18]): 10.2 ± 1.6 DSS; drug sensitivity score (UT-SCC-14; [14]): 9.3 ± 2.1 DSS; drug sensitivity score (UT-SCC-14; [15]): 6.63 ± 3.8 DSS; drug sensitivity score (UT-SCC-14; [16]): 6.5 ± 3.7 DSS; drug sensitivity score (UT-SCC-14; [17]): 3.43 ± 1.8 DSS; drug sensitivity score (UT-SCC-14; [18]): 2.23 ± 1.9 DSS; drug sensitivity score (UT-SCC-24B; [14]): 11 ± 1 DSS; drug sensitivity score (UT-SCC-24B; [15]): 10.3 ± 2.3 DSS; drug sensitivity score (UT-SCC-24B; [16]): 10.1 ± 1.1 DSS; drug sensitivity score (UT-SCC-24B; [17]): 6.67 ± 1.4 DSS; drug sensitivity score (UT-SCC-24B; [18]): 13.8 ± 0.95 DSS; drug sensitivity score (UT-SCC-73 [2]; [14]): 19.8 ± 3.1 DSS; drug sensitivity score (UT-SCC-73 [2]; [15]): 15.4 ± 3.3 DSS; drug sensitivity score (UT-SCC-73 [2]; [16]): 18.7 ± 3.7 DSS; drug sensitivity score (UT-SCC-73 [2]; [17]): 14.6 ± 1.9 DSS; drug sensitivity score (UT-SCC-73 [2]; [18]): 16.1 ± 3.1 DSS; drug sensitivity score (UT-SCC-106A [3]; [14]): 15.3 ± 2.4 DSS; drug sensitivity score (UT-SCC-106A [3]; [15]): 0.6 ± 0.6 DSS; drug sensitivity score (UT-SCC-106A [3]; [16]): 16.9 ± 1.2 DSS; drug sensitivity score (UT-SCC-106A [3]; [17]): 3.1 ± 2.4 DSS; drug sensitivity score (UT-SCC-106A [3]; [18]): 17.3 ± 0.72 DSS; drug sensitivity score (UT-SCC-28; [14]): 5.9 ± 1.1 DSS; drug sensitivity score (UT-SCC-28; [15]): 3.83 ± 3.9 DSS; drug sensitivity score (UT-SCC-28; [16]): 7.33 ± 3.5 DSS; drug sensitivity score (UT-SCC-28; [18]): 4.33 ± 1.3 DSS; drug sensitivity score (UT-SCC-81; [14]): 31.1 ± 6 DSS; drug sensitivity score (UT-SCC-81; [15]): 3.93 ± 0.58 DSS; drug sensitivity score (UT-SCC-81; [16]): 18.2 ± 2.1 DSS; drug sensitivity score (UT-SCC-81; [17]): 4.77 ± 4 DSS; drug sensitivity score (UT-SCC-81; [18]): 7.57 ± 2.1 DSS; drug sensitivity score (UT-SCC-42B [4]; [14]): 17.6 ± 2.3 DSS; drug sensitivity score (UT-SCC-42B [4]; [16]): 9.67 ± 0.84 DSS; drug sensitivity score (UT-SCC-42B [4]; [17]): 1.4 ± 1.4 DSS; drug sensitivity score (UT-SCC-42B [4]; [18]): 3.77 ± 2.9 DSS; drug sensitivity score (UT-SCC-42A; [14]): 7.6 ± 5.4 DSS; drug sensitivity score (UT-SCC-42A; [15]): 2.57 ± 2.8 DSS; drug sensitivity score (UT-SCC-42A; [16]): 10.5 ± 0.9 DSS; drug sensitivity score (UT-SCC-42A; [17]): 6.97 ± 0.8 DSS; drug sensitivity score (UT-SCC-42A; [18]): 5.87 ± 3.6 DSS; drug sensitivity score (UT-SCC-8; [14]): 9.37 ± 3.3 DSS; drug sensitivity score (UT-SCC-8; [15]): 3.9 ± 6.8 DSS; drug sensitivity score (UT-SCC-8; [16]): 6.63 ± 5 DSS; drug sensitivity score (UT-SCC-8; [17]): 4.7 ± 4 DSS; drug sensitivity score (UT-SCC-8; [18]): 4.93 ± 4 DSS; drug sensitivity score (UT-SCC-40 [5]; [14]): 18.4 ± 4.2 DSS; drug sensitivity score (UT-SCC-40 [5]; [15]): 13.4 ± 2.6 DSS; drug sensitivity score (UT-SCC-40 [5]; [16]): 15.7 ± 2.8 DSS; drug sensitivity score (UT-SCC-40 [5]; [17]): 10.9 ± 1.8 DSS; drug sensitivity score (UT-SCC-40 [5]; [18]): 11.3 ± 3.5 DSS; maximal % inhibition of viability (UT-SCC-24A [6]; [14]): 74.7 ± 4%; maximal % inhibition of viability (UT-SCC-24A [6]; [15]): 48.6 ± 6.4%; maximal % inhibition of viability (UT-SCC-24A [6]; [16]): 69.5 ± 5.2%; maximal % inhibition of viability (UT-SCC-24A [6]; [17]): 33.1 ± 9.5%; maximal % inhibition of viability (UT-SCC-24A [6]; [18]): 62.4 ± 10%; relative IC50 (UT-SCC-24A [7]; [14]): 1.4 nM; relative IC50 (UT-SCC-24A [7]; [16]): 1.34 nM; relative IC50 (UT-SCC-24A [7]; [18]): 1.07 nM; drug sensitivity score (UT-SCC-24A [8]; [14]): 20.2 ± 1.9 DSS; drug sensitivity score (UT-SCC-24A [8]; [15]): 8.77 ± 2.7 DSS; drug sensitivity score (UT-SCC-24A [8]; [16]): 18.9 ± 1.5 DSS; drug sensitivity score (UT-SCC-24A [8]; [17]): 3.8 ± 1.6 DSS; drug sensitivity score (UT-SCC-24A [8]; [18]): 18.2 ± 2.1 DSS; relative IC50 (UT-SCC-44 [9]; [14]): 1.55 nM; relative IC50 (UT-SCC-44 [9]; [16]): 1.52 nM; relative IC50 (UT-SCC-44 [9]; [18]): 1.46 nM; relative IC50 (UT-SCC-73 [10]; [14]): 2.42 nM; relative IC50 (UT-SCC-73 [10]; [17]): 3.31 nM; relative IC50 (UT-SCC-106A [11]; [14]): 0.942 nM; relative IC50 (UT-SCC-106A [11]; [16]): 1.25 nM; relative IC50 (UT-SCC-106A [11]; [18]): 1.5 nM; relative IC50 (UT-SCC-42B [12]; [14]): 1.71 nM; relative IC50 (UT-SCC-42B [12]; [16]): 5.67 nM; relative IC50 (UT-SCC-42B [12]; [17]): 12.5 nM; relative IC50 (UT-SCC-40 [13]; [16]): 3.55 nM; relative IC50 (UT-SCC-40 [13]; [17]): 4.8 nM
